Experimental data as given in US8044057B2, “Methods for suppressing an immune response or treating a proliferative disorder” (The United States of America as represented by the …, priority 2003, dated 2011).

How the values were obtained:
Format in all cases: cell-based, human
[1] = tested on: PASM cells; test: BrDU incorporation (in situ ELISA) in PASM cells
Experimental: PASM cells (4,000 per well) were grown in 96-well plates for 24 hours before incubation for 24 hours in medium with (FIG. 4C) or without 10% FBS (FIG. 4D). Cells were then incubated in fresh medium containing 10% FBS, 10 μM BrDU, and 0-100 μM LY303511 without or with rapamycin, 200 or 400 ng/ml, for 24 hours BrDU incorporation was measured by in situ ELISA as per the manufacturer's instructions (BrDU detection kit, Roche). For each experiment, BrDU content of cells incubated with inhibitors was expressed relative to that in cells incubated with 0.1% DMSO control (% control). Mean control (=100%) absorbance for each experiment using cells from different donors was 0.22±0.06 and 0.24±0.06 for FIG. 4C and FIG. 4D, respectively (=100%). Data are means of BrDU values ±SEM from 3 experiments with assays in sextuplet. *p<0.05 vs. DMSO control, or †p<0.05 vs. 10 μM LY303511, by Student's t-test.
Measurement of cell proliferation:. Cell proliferation, or DNA synthesis, was estimated using an in situ 5-bromo-2-deoxy-uridine (BrDU) detection kit as per the manufacturer's instructions (Roche Diagnostics; Nutley, N.J.). […] Cells were fixed, and BrDU was detected using a peroxidase-conjugated anti-BrDU antibody. The measured absorbance data in cells treated with inhibitors were normalized to those treated with DMSO control (% control).

[2] = tested on: PASM cells; test: Propidium iodide flow cytometry cell cycle analysis in PASM cells; details: 24 hours
Experimental: FIGS. 5A-5B are bar graphs showing that LY303511 inhibits the cell cycle by causing combined G1 and G2/M arrest and that LY303511 inhibits CK2 activity. For the data shown in FIG. 5A, PASM cells were cultured in medium with FBS for 48 hours before the addition of 0-100 μM LY303511 without or with raparnycin, 400 ng/ml, for 24 hours. Cells were then harvested and incubated with propidium iodide for 2 hours before counting using a Becton-Dickson FACSCalibur. Data are the means (±SEM) of percentages of cells in G1, S, or G2/M phase of the cell cycle in three experiments with duplicate assays. *p<0.05 vs. DMSO control, or †p<0.05 vs. 10 μM LY303511, by Student's t—test. FIG. 5B is a bar graph showing that LY303511 or LY294002 inhibits CK2 in vitro. […] Data are the means of values for samples with inhibitors expressed as percentage of that for control, which was (mean±SEM) 0.2±0.03 pmol phosphate/100 ng protein/10 min. […]
In order to investigate the effect of LY303511 on the cell cycle, A549 cells or pulmonary artery smooth muscle cells were grown to sub-confluence in serum-containing media, and incubated with vehicle, 10, or 100 mcM LY303511, without or with Rapamycin (200 ng/ml), for 24 hours. […] The proportion of cells in G1, S, or G2/M phase of the cell cycle for each experimental condition was determined. […]

[3] = tested on: STAT1; test: STAT1-driven luciferase reporter (GAS-luc) in A549 cells; details: 100 mcM LY303511 1 hour before LPS/IFN-γ for 6 hours
Experimental: (§1) A549 cells were transiently transfected with a reporter vector expressing firefly luciferase driven by STAT1 (GAS-luc, Clontech), and incubated without or with 100 mcM LY303511, rapamycin, 200 ng/ml, or both, for 1 hour before addition of LPS/IFN-γ for 6 hours. STAT1 activity (luciferase activity) was measured in cell lysates (RLU). The data presented are triplicate samples ±SEM, and are representative of two independent experiments.
as §1, with “presented in FIG. 8” for “presented”, “samples±SEM,” for “samples ±SEM,”

O=c1cc(N2CCNCC2)oc2c(-c3ccccc3)cccc12 [LY303511, 2-(4-piperazinyl)-8-phenyl-4H-1-benzopyran-4-one]
proliferation (BrDu incorporation) ([1]; PASM cells in serum-free medium for 24 h before addition of FBS (FIG. 4D), compared with serum pre-incubation): enhanced in the absence of serum
proliferation (BrDu incorporation) ([1]; PASM cells incubated with serum before addition of inhibitors (FIG. 4C)): inhibited in concentration-dependent fashion
G1 phase cells (G1 arrest) [2]: negligible
proportion of cells in S phase [2]: reduced the proportion of cells in S phase
STAT1 activation (luciferase activity) [3]: inhibited STAT1 activation
